Patent US20100062059A1, “S-Nitrosothiols Containing Composition for the Treatment of Fatty Liver Diseases, Obesity and Other Diseases Associated with the Metabolic Syndrome and the Use of Such Compositions” (PROTAGEN AKTIENGESELLSCHAFT, priority 2006, published 2010)

Key:
[1] = system: Wistar rats with hepatic steatosis induced by a choline-deficient diet; assay: Hydroperoxide (LOOH) concentration in the liver of rats with diet-induced hepatic steatosis; format: in vivo; details: control group 3.2±0.4
Method: Wistar rats with hepatic steatosis induced by a choline-deficient diet were assigned to three groups to perform the tests with the administration of S-nitroso-N-acetylcysteine (SNAC), which is one of the active principles of the present invention, and to evaluate the concentration of hydroperoxides (LOOH) in the liver.
A first group of animals, group 1, was treated with a solution of S-nitroso-N-acetylcysteine, which was administrated orally to the animals at a dose of 1.4 mg/kg/day. A second group of animals, group 2, was treated with N-acetylcysteine (NAC), which was also administrated orally to the animals at a dose of 7.0 mg/kg/day.

[2] = system: human low density lipoprotein (LDL); assay: CuCl2-catalyzed oxidation of LDL suspension, fluorescence spectrophotometry; format: biochemical; details: LDL 200 μg/mL, CuCl2 300 μmol/L, 15 hours, SNAC 300 μmol/L, pH 7.4
Method: For this example, approximately 15 mL of a human low density lipoprotein (LDL) suspension at a concentration of around 200 μg/mL, in phosphate buffer, pH 7.4, aerated PBS (in vitro) were previously prepared and initially divided into three parts. A first part (a) with approximately 5 mL consisting of the previously prepared suspension solely; a second part (b) with approximately 5 mL, consisting of the LDL suspension incubated in a CuCl2 solution at a preferential concentration of 300 μmol/L for a period of around 15 hours; and a third part (c) with approximately 5 mL, consisting of the LDL suspension incubated in a CuCl2 solution at a preferential concentration of 300 μmol/L for a period of around 15 hours, in the presence of SNAC at a preferential concentration of 300 μmol/L.
A sample of each part was submitted to fluorescence spectrophotometry. FIG. 2 features the emission spectrum for the analyzed samples. […] The 410- and 440-nm emission peaks in the LDL suspension fluorescence spectrum correspond to the formation of a Schiff base adduct between the lipid oxidation products contained in the LDL particles (mainly the malondialdehyde [MDA]) and the free amino groups on LDL apolipoprotein (mainly apo-B-100), and are known as LDL oxidation markers.

[3] = system: soy lipoxigenase (SLO); assay: Linoleic acid (LA) peroxidation catalyzed by soy lipoxigenase, absorbance at 234 nm; format: biochemical
Method: This referred effect may be shown by the analysis of two kinetic parameters: initial velocity and extension of the peroxidation reaction until the chemical equilibrium is reached. Such parameters were analyzed by ultraviolet spectrophotometry and the kinetic curves (a′, b′, c′ and d′) were obtained from absorbance variation monitored though the band with peak at 234 nm at a preferential temperature of 37° C. This band value is characteristic for combined dienes and may, therefore, act as LA peroxidation marker. For this Example, the first curve (a′) refers to a sample of linoleic acid whose peroxidation was catalyzed by incubation with soy lipo-oxygenase at a preferential concentration of 0.056 μmol/L; the second curve (b′) refers to a sample of linoleic acid whose peroxidation was catalyzed by incubation of the linoleic acid with a mixture of soy lipo-oxygenase in the presence of NAC at a preferential concentration of 560 μmol/L; the third curve (c′) refers to a sample of linoleic acid whose peroxidation was catalyzed by incubation of soy Lipo-oxygenase in the presence of SNAC at a preferential concentration of 56 μmol/L; and the fourth curve (d′) refers to a sample of linoleic acid whose peroxidation was catalyzed by incubation of soy lipo-oxygenase in the presence of SNAC at a preferential concentration of 560 μmol/L. FIG. 3 illustrates the absorbance curves obtained for the groups of the present Example. The interpretation of the curves is given by the initial velocity, which corresponds to the inclination of the initial section of the curves within approximately 10 seconds, and the extension of the reaction, which corresponds to the absorbance values on the plateaus of the curves.

[4] = system: Rats fed a choline-deficient diet; assay: Liver histology (hematoxylin and eosin) of rats fed a choline-deficient diet; format: in vivo; details: control: moderate macrovacuolar and microvacuolar steatosis in the periportal zone
Description: Rats fed a choline-deficient diet were selected to compose the Control Group when compared to SNAC-treated rats. Hematoxylin and eosin-stained histological sections of hepatic tissue were examined under optical microscopy, as shown on FIGS. 5A and 5B.

[5] = system: ob/ob mice; assay: Liver histology (hematoxylin and eosin) of ob/ob mice on MCD or hyperlipidemic diet; format: in vivo
Description: For the Example 4, ob/ob mice were selected. A first group of mice was fed a methionine/choline-deficient diet (Group MCD) and a second group of mice was fed a hyperlipidemic diet (Group H).
Animals were selected from both groups and hematoxylin and eosin-stained histological sections of the hepatic tissue of these animals were obtained and examined under optical microscopy.
Other animals selected from both groups of mice, Group MCD and Group H, were submitted to a 30-day treatment consisting of SNAC administration. After the 30th day, hematoxylin and eosin-stained histological sections of the hepatic tissue of these animals were obtained and examined under optical microscopy.
The remaining animals in Groups H and MCD were maintained on these diets up the 60th day and were put on SNAC administration from the 31st day on. After the 60th day of treatment, hematoxylin and eosin-stained histological sections of the hepatic tissue of these animals were obtained and examined under optical microscopy.

[6] = Body mass variation of animals on MCD or hyperlipidemic diet; format: in vivo; details: SNAC by gavage, four weeks
Description: Data are expressed as means±standard deviation.

[7] = SNAC 56 μmol/L, reduction compared with NAC 560 μmol/L, curve c′
[8] = NAC 560 μmol/L, LA 18.76 μmol/L, SLO 0.056 μmol/L, 37° C., curve b′

Compound: CC(=O)N[C@@H](CSN=O)C(=O)O [SNAC, S-nitroso-N-acetylcysteine]
- hydroperoxide concentration in the liver ([1]; group 1, oral, 1.4 mg/kg/day): 0.3±0.1 nmol/g protein
- 410 and 440 nm emission peaks (LDL oxidation markers) [2]: blockage of the increase of 410 and 440 nm peaks
- extension of the LA peroxidation reaction [3, 7]: reduction is more accentuated
- initial velocity of the LA peroxidation reaction [3, 7]: reduction is more accentuated
- extension of the LA peroxidation reaction ([3]; SNAC 560 μmol/L, curve d′): reduction is considerably much pronounced
- initial velocity of the LA peroxidation reaction ([3]; SNAC 560 μmol/L, curve d′): reduction is considerably much pronounced
- histological characteristics of hepatic tissue [4]: normal liver in the periportal zone
- histological characteristics of the liver ([5]; Group H, diet concomitantly with 30-day SNAC administration): consistent with normal livers
- histological characteristics of the liver ([5]; Group H, diet to 60th day, SNAC from the 31st to the 60th day): consistent with those of normal livers
- histological characteristics of the liver ([5]; Group MCD, diet concomitantly with 30-day SNAC administration): consistent with normal livers
- histological characteristics of the liver ([5]; Group MCD, diet to 60th day, SNAC from the 31st to the 60th day): consistent with those of normal livers
- body mass increase ([6]; group H (untreated 28% increase)): remarkable reduction of body mass increase
- body mass increase ([6]; group MCD): practically eliminated the body mass increase

Compound: CC(=O)N[C@@H](CS)C(=O)O [NAC, N-acetylcysteine, reference compound]
- hydroperoxide concentration in the liver ([1]; group 2, oral, 7.0 mg/kg/day): 0.7±0.2 nmol/g protein
- extension of the LA peroxidation reaction [3, 8]: reduced the extension
- initial velocity of the LA peroxidation reaction [3, 8]: reduced the extension and velocity
